Patent publication US8314250B2, “Sultam derivatives” (Hoffmann-La Roche Inc., priority 2009, dated 2012)
Counter-ions that a name gives are not always drawn.

system: HeLa cells; experiment: CellTiter-Glo luminescent cell viability (cytotoxicity) assay; type: cell-based; conditions: 10 μM test compound, 48 hours, inhibition of luminescence compared to control cells, 10 µM
Protocol: Cytotoxicity was assessed using Promega's CellTiter-Glo® luminescent cell viability assay (Promega Corporation, Madison, Wis., USA) as described in Promega Technical Bulletin TB288, revised August 2008. The assay was performed in HeLa cells at a maximum concentration tested of 10 μM of test compound. This assay measures the amount of adenosine triphosphate (ATP) present as a way of quantifying the presence and degree of metabolic activity in cell cultures.
Viable Hela cells were plated at a density of 3000 cells/well in 96 wells in black, clear bottom plates. Cells were allowed to attach to the plate by incubating overnight at 37° C. Test compounds were diluted in DMSO then further diluted in 10% FBS media. Media was removed from the cell plates and 50 μL of the solution was added to each well manually with the exception of the control well, which contained the same volume of 10% FBS media which includes 1% DMSO. Cells were incubated in the presence of compound undisturbed for 48 hours at 37° C. After the 48 hour compound exposure, 50 μL of the pCellTiter Glo® reagent was added. The cell plates were agitated on a shaker for 2 minutes to help lyse the cells. The plate was covered and read for luminescence.
Percent inhibition was calculated as follows: PCT_INHIB=100*[(U−T)/U] Where U represents the Luminescence of wells containing untreated cells and
T represents the Luminescence of wells containing compound-treated cells

Question: How did the “Activity (PCT_INHIB @ 10 μM)” value turn out when `COc1ccc(Cl)c(CN(Cc2cccc(CN3C(C(=O)NC45CC6CC(CC(C6)C4)C5)CCS3(=O)=O)c2)[C@H](CN(C)C)CC(C)(C)C)c1F` (single isomer, unassigned; epimer 2) [Example 34] was run?
Answer: Its value is 97%.

Question: `COc1ccc(Cl)c(CN(Cc2cccc(CN3C(C(=O)NC45CC6CC(CC(C6)C4)C5)CCS3(=O)=O)c2)[C@H](CN(C)C)CC(C)(C)C)c1F` (single isomer, unassigned; epimer 1) [Example 33] was tested. Which “Activity (PCT_INHIB @ 10 μM)” value did it give?
Answer: The value was 96%.

same assay, conditions: Homo sapiens, HeLa, 48 h, 10 μM test compound, inhibition of luminescence compared to control cells, read-out: Activity (PCT_INHIB @ 10 μM)

Question: Which inhibition at 10 µM does the source give for `COc1ccc(Cl)c(CN(Cc2cccc(CN3C(C(=O)NCc4ccc(Cl)cc4)CCS3(=O)=O)c2)[C@H](CN(C)C)CC(C)(C)C)c1F` (stereo partly drawn) [Example 27, 2-(3-{[(6-Chloro-2-fluoro-3-methoxy-benzyl)-((S)-1-dimethylaminomethyl-3,3-dimethyl-butyl)-amino]-methyl}-benzyl)-1,1-dioxo-1λ^6-isothiazolidine-3-carboxylic acid 4-chloro-benzylamide] here?
Answer: Its inhibition at 10 µM is 95%.

Question: For `C[C@@H]1[C@@H](NC(=O)C2CCS(=O)(=O)N2Cc2cccc(CN(Cc3ccccc3-c3ccc(F)cc3)[C@H](CN(C)C)CC(C)(C)C)c2)C[C@H]2C[C@@H]1C2(C)C` (stereo partly drawn) [Example 8, 2-(3-{[((S)-1-Dimethylaminomethyl-3,3-dimethyl-butyl)-(4′-fluoro-biphenyl-2 ylmethyl)-amino]-methyl}-benzyl)-1,1-dioxo-1λ^6-isothiazolidine-3-carboxylic acid((1S,2S,3S,5R)-2,6,6-trimethyl-bicyclo[3.1.1]hept-3-yl)-amide trifluoroacetate salt], which inhibition at 10 µM is on record?
Answer: Its inhibition at 10 µM is 97%.

Question: With `CCOc1ccccc1CN(Cc1cccc(CN2C(C(=O)N[C@H]3C[C@H]4C[C@@H]([C@@H]3C)C4(C)C)CCS2(=O)=O)c1)[C@H](CN(C)C)CC(C)(C)C` (stereo partly drawn) [Example 3, 2-(3-{[((S)-1-Dimethylaminomethyl-3,3-dimethyl-butyl)-(2-ethoxy-benzyl)-amino]methyl}-benzyl)-1,1-dioxo-1λ^6-isothiazolidine-3-carboxylic acid((1S,2S,3S,5R)-2,6,6-trimethyl-bicyclo[3.1.1]hept-3-yl)-amide trifluoroacetate salt] as the molecule, how does the inhibition at 10 µM read?
Answer: Its inhibition at 10 µM is 69%.

Question: `COc1ccc(Cl)c(CN(Cc2cccc(CN3C(C(=O)N[C@H]4C[C@H]5C[C@@H]([C@@H]4C)C5(C)C)CCS3(=O)=O)c2)[C@@H](Cc2ccccc2)CN(C)C)c1F` (stereo partly drawn) [Example 21, 2-(3-{[(6-Chloro-2-fluoro-3-methoxy-benzyl)-((S)-1-dimethylaminomethyl-2-phenyl-ethyl)-amino]-methyl}-benzyl)-1,1-dioxo-1λ^6-isothiazolidine-3-carboxylic acid((1S,2S,3S,5R)-2,6,6-trimethyl-bicyclo[3.1.1]hept-3-yl)-amide] was tested. Which inhibition at 10 µM did it give?
Answer: Its inhibition at 10 µM is 77%.

Question: `Cc1ccc(CN(Cc2cccc(CN3C(C(=O)N[C@H]4C[C@H]5C[C@@H]([C@@H]4C)C5(C)C)CCS3(=O)=O)c2)[C@H](CN(C)C)CC(C)(C)C)c(O)c1` (stereo partly drawn) [Example 9, 2-(3-{[((S)-1-Dimethylaminomethyl-3,3-dimethyl-butyl)-(2-hydroxy-4-methylbenzyl)-amino]-methyl}-benzyl)-1,1-dioxo-1λ^6-isothiazolidine-3-carboxylic acid((1S,2S,3S,5R)-2,6,6-trimethyl-bicyclo[3.1.1]hept-3-yl)-amide trifluoroacetate salt] was tested. Which inhibition at 10 µM did it give?
Answer: The inhibition at 10 µM was 96%.

Question: `C[C@@H]1[C@@H](NC(=O)C2CCS(=O)(=O)N2Cc2cccc(CN(Cc3ccccc3OC(F)F)[C@H](CN(C)C)CC(C)(C)C)c2)C[C@H]2C[C@@H]1C2(C)C` (stereo partly drawn) [Example 5, 2-(3-{[(2-Difluoromethoxy-benzyl)-((S)-1-dimethylaminomethyl-3,3-dimethyl-butyl)amino]-methyl}-benzyl)-1,1-dioxo-1λ^6-isothiazolidine-3-carboxylic acid((1S,2S,3S,5R)-2,6,6-trimethyl-bicyclo[3.1.1]hept-3-yl)-amide trifluoroacetate salt] was tested. Which inhibition at 10 µM did it give?
Answer: The inhibition at 10 µM was 87%.

Question: Which inhibition at 10 µM does the source give for `COc1ccc(Cl)c(CN(Cc2cccc(CN3C(C(=O)N[C@@H]4C[C@@H]5C[C@H]([C@H]4C)C5(C)C)CCS3(=O)=O)c2)[C@H](CN(C)C)CC(C)(C)C)c1F` (stereo partly drawn) [Example 19, 2-(3-{[(6-Chloro-2-fluoro-3-methoxy-benzyl)-((S)-1-dimethylaminomethyl-3,3-dimethyl-butyl)-amino]-methyl}-benzyl)-1,1-dioxo-1λ^6-isothiazolidine-3-carboxylic acid((1R,2R,3R,5S)-2,6,6-trimethyl-bicyclo[3.1.1]hept-3-yl)-amide] here?
Answer: Its inhibition at 10 µM is 73%.

Question: Which inhibition at 10 µM does the source give for `Cc1ccccc1-c1ccccc1CN(Cc1cccc(CN2C(C(=O)N[C@H]3C[C@H]4C[C@@H]([C@@H]3C)C4(C)C)CCS2(=O)=O)c1)[C@H](CN(C)C)CC(C)(C)C` (stereo partly drawn) [Example 11, 2-(3-{[((S)-1-Dimethylaminomethyl-3,3-dimethyl-butyl)-(2′-methyl-biphenyl-2 ylmethyl)-amino]-methyl}-benzyl)-1,1-dioxo-1λ^6-isothiazolidine-3-carboxylic acid((1S,2S,3S,5R)-2,6,6-trimethyl-bicyclo[3.1.1]hept-3-yl)-amide trifluoroacetate salt] here?
Answer: The inhibition at 10 µM was 97%.

Question: For `C[C@@H]1[C@@H](NC(=O)C2CCS(=O)(=O)N2Cc2cccc(CN(Cc3ccccc3Oc3ccc(C#N)cc3)[C@H](CN(C)C)CC(C)(C)C)c2)C[C@H]2C[C@@H]1C2(C)C` (stereo partly drawn) [Example 16, 2-(3-{[[2-(4-Cyano-phenoxy)-benzyl]-((S)-1-dimethylaminomethyl-3,3-dimethyl-butyl)-amino]-methyl}-benzyl)-1,1-dioxo-1λ^6-isothiazolidine-3-carboxylic acid((1S,2S,3S,5R)-2,6,6-trimethyl-bicyclo[3.1.1]hept-3-yl)-amide trifluoroacetate salt], which inhibition at 10 µM is on record?
Answer: The inhibition at 10 µM was 97%.

Question: For `COc1ccc(Br)c(CN(Cc2cccc(CN3C(C(=O)N[C@H]4C[C@H]5C[C@@H]([C@@H]4C)C5(C)C)CCS3(=O)=O)c2)[C@H](CN(C)C)CC(C)(C)C)c1O` (stereo partly drawn) [Example 14, 2-(3-{[(6-Bromo-2-hydroxy-3-methoxy-benzyl)-((S)-1-dimethylaminomethyl-3,3-dimethyl-butyl)-amino]-methyl}-benzyl)-1,1-dioxo-1λ^6-isothiazolidine-3-carboxylic acid((1S,2S,3S,5R)-2,6,6-trimethyl-bicyclo[3.1.1]hept-3-yl)-amide trifluoroacetate salt], which inhibition at 10 µM is on record?
Answer: The inhibition at 10 µM was 75%.

Question: `C[C@@H]1[C@@H](NC(=O)C2CCS(=O)(=O)N2Cc2cccc(CN(Cc3c(F)ccc(Br)c3F)[C@H](CN(C)C)CC(C)(C)C)c2)C[C@H]2C[C@@H]1C2(C)C` (stereo partly drawn) [Example 18, 2-(3-{[(3-Bromo-2,6-difluoro-benzyl)-((S)-1-dimethylaminomethyl-3,3-dimethyl-butyl)-amino]-methyl}-benzyl)-1,1-dioxo-1λ^6-isothiazolidine-3-carboxylic acid((1S,2S,3S,5R)-2,6,6-trimethyl-bicyclo[3.1.1]hept-3-yl)-amide trifluoroacetate salt] was tested. Which inhibition at 10 µM did it give?
Answer: The inhibition at 10 µM was 94%.

Question: `COc1ccc(Cl)c(CN(Cc2cccc(CN3C(C(=O)N4CCC(c5ccccc5)CC4)CCS3(=O)=O)c2)[C@H](CN(C)C)CC(C)(C)C)c1F` (stereo partly drawn) [Example 24, [2-(3-{[(6-Chloro-2-fluoro-3-methoxy-benzyl)-((S)-1-dimethylaminomethyl-3,3-dimethyl-butyl)-amino]-methyl}-benzyl)-1,1-dioxo-1λ^6-isothiazolidin-3-yl]-(4-phenyl-piperidin-1-yl)-methanone] was tested. Which inhibition at 10 µM did it give?
Answer: Its inhibition at 10 µM is 96%.

Question: How did the inhibition at 10 µM turn out when `COc1ccc(Cl)c(CN(Cc2cccc(CN3C(C(=O)N4CCC(O)(c5ccc(Cl)cc5)CC4)CCS3(=O)=O)c2)[C@H](CN(C)C)CC(C)(C)C)c1F` (stereo partly drawn) [Example 32, [2-(3-{[(6-Chloro-2-fluoro-3-methoxy-benzyl)-((S)-1-dimethylaminomethyl-3,3-dimethyl-butyl)-amino]-methyl}-benzyl)-1,1-dioxo-1λ^6-isothiazolidin-3-yl]-[4-(4-chloro-phenyl)-4-hydroxy-piperidin-1-yl]-methanone] was run?
Answer: The inhibition at 10 µM was 96%.

Question: With `Cc1ccc(Cl)c(CN(Cc2cccc(CN3C(C(=O)N[C@H]4C[C@H]5C[C@@H]([C@@H]4C)C5(C)C)CCS3(=O)=O)c2)[C@H](CN(C)C)CC(C)(C)C)c1F` (stereo partly drawn) [Example 15, 2-(3-{[(6-Chloro-2-fluoro-3-methyl-benzyl)-((S)-1-dimethylaminomethyl-3,3-dimethylbutyl)-amino]-methyl}-benzyl)-1,1-dioxo-1λ^6-isothiazolidine-3-carboxylic acid((1S,2S,3S,5R)-2,6,6-trimethyl-bicyclo[3.1.1]hept-3-yl)-amide trifluoroacetate salt] as the molecule, how does the inhibition at 10 µM read?
Answer: The inhibition at 10 µM was 91%.

Question: Which inhibition at 10 µM does the source give for `C[C@@H]1[C@@H](NC(=O)C2CCS(=O)(=O)N2Cc2cccc(CN(Cc3c(F)cccc3Oc3ccccc3)[C@H](CN(C)C)CC(C)(C)C)c2)C[C@H]2C[C@@H]1C2(C)C` (stereo partly drawn) [Example 12, 2-(3-{[((S)-1-Dimethylaminomethyl-3,3-dimethyl-butyl)-(2-fluoro-6-phenoxy-benzyl)-amino]-methyl}-benzyl)-1,1-dioxo-1λ^6-isothiazolidine-3-carboxylic acid((1S,2S,3S,5R)-2,6,6-trimethyl-bicyclo[3.1.1]hept-3-yl)-amide trifluoroacetate salt] here?
Answer: Its inhibition at 10 µM is 96%.
